The record followed here is patent publication US20170151264A1, “COMBINATION” (Almirall, S.A., priority 2014, published 2017).

Molecules are shown by their SMILES.

The subject of series [1] is Anti-Dsg3 and anti-dsDNA autoantibody production. The experiment in a line: MRL/lpr spontaneous autoimmune disease model, autoantibody production. The class given is in vivo, MRL/Ipr mouse. The conditions noted are these: for Inhibition (%) of Anti Dsg3 total IgG production (Normalized AUCw 12-19) versus Vehicle / Inhibition (%) of Anti dsDNA total IgG production (Normalized AUCw 12-19) versus Vehicle: LAS191954 3 mg/kg or prednisolone 10 mg/kg orally once a day for 6 weeks. On the procedure:
The primary endpoint of this study was assessment of autoantibody production, including pemphigus-specific anti-Dsg3 antibodies.
The prednisolone dose was selected based on previous reports and corresponds to a high CS dose in humans.
As autoantibodies develop progressively and may follow a different course in each animal, anti-dsDNA antibody levels were measured on week 12 and used to uniformly distribute animals to dosing groups. At week 13, daily treatments were initiated and continued for 6 weeks. Antibodies to dsDNA and Dsg3 were measured at weeks 12, 15, 17 and 19. Skin lesions were inspected visually throughout the study. Effects on other parameters such as proteinuria, as well as general hematological, serological, and histological signs were evaluated at study completion.

The subject of another series is neutrophils in BALF. In words: Cigarette smoke model. The format is in vivo, Mouse. To be noted: LAS191954 1 mg/kg and/or dexamethasone 0.3 mg/kg.
Series [2] concerns Concanavalin A induced plasma interleukin-2 (IL-2) release. In words: Concanavalin A induced plasma IL-2 release in rats. To be noted: for reduction in IL2 production versus vehicle-treated con A-induced rats: LAS191954 0.1 mg/kg and/or dexamethasone 0.03 mg/kg, 1 h before con A, IL2 at 90 min; for plasma levels alone versus in combination: LAS191954 0.1 mg/kg, dexamethasone 0.03 mg/kg, rat. The format is in vivo, Wistar rats.

For series [3], the system named is neutrophils, eosinophils and lymphocytes in bronchoalveolar fluid (BALF). The experiment in a line: House dust mite induced asthma model. The class given is in vivo, Mouse.
Series [4] has as its system autoantibody-mediated cutaneous lesions. In words: Immunization-induced mouse model of epidermolysis bullosa acquista (EBA). The class given is in vivo, B6.SJL-H2s mice. The conditions noted are these: 6 week treatment; for body weight gain: LAS191954 3 mg/kg/day or methylprednisolone 20 mg/kg/day orally. On the procedure: Induction of experimental EBA was performed as described in Iwata H, Bieber K, Tiburzy B et al., J Immunol. 2013; 191:2978-2988. Briefly, 6-10 week B6.SJL-H2s mice were immunized with an emulsion of a recombinant protein encompassing the vWFA2 binding domain of mouse type VII collagen (COL7) in adjuvant (Titermax). After immunization, mice were weekly evaluated for the presence and extend of clinical disease, measured as percentage of body surface affected by skin lesions (erythema, blisters, erosions and crusts).
Treatments were carried out over a 6-week period, and mice were evaluated for the extend of clinical disease (primary endpoint) weekly. Clinical manifestations were scored 0 to 5, corresponding to 0%, <1%, ≧1% to <5%, ≧5% to <10%, ≧10% to <20% of body surface area affected, respectively. Area under Curve (AUC) was calculated from the score at inclusion, 1, 2, 3, 4, 5 and 6 weeks after allocation to treatment. For better comparability between experiments, the affected body surface area at weeks 1-6 was related to that at inclusion (set at 1).
Body weight was monitored weekly during treatment.

In series [5] the test system is secondary IgG antibody responses to KLH. The experiment in a line: Secondary TDAR to KLH in mice. The class given is in vivo. On the procedure:
This assay included two immunizations with KLH separated 15 days apart (50 μg KLH/animal, intraperitoneally) and specific IgG anti-KLH levels were measured on day +11 after the second immunization. Administration of test compound (0.3 and 3 mg/kg) started on the day of second immunization (day +1) and then once daily for the next 9 days.

Series [6] concerns the target T1, PI3Kδ (Homo sapiens, UniProt O00329). In words: BCR crosslinking-induced B cell CD69 expression, human whole blood. The format is cell-based. To be noted: CD19+ cells (human whole blood), B cell CD69 surface expression.
Target sequence in this assay (O00329 whole entry): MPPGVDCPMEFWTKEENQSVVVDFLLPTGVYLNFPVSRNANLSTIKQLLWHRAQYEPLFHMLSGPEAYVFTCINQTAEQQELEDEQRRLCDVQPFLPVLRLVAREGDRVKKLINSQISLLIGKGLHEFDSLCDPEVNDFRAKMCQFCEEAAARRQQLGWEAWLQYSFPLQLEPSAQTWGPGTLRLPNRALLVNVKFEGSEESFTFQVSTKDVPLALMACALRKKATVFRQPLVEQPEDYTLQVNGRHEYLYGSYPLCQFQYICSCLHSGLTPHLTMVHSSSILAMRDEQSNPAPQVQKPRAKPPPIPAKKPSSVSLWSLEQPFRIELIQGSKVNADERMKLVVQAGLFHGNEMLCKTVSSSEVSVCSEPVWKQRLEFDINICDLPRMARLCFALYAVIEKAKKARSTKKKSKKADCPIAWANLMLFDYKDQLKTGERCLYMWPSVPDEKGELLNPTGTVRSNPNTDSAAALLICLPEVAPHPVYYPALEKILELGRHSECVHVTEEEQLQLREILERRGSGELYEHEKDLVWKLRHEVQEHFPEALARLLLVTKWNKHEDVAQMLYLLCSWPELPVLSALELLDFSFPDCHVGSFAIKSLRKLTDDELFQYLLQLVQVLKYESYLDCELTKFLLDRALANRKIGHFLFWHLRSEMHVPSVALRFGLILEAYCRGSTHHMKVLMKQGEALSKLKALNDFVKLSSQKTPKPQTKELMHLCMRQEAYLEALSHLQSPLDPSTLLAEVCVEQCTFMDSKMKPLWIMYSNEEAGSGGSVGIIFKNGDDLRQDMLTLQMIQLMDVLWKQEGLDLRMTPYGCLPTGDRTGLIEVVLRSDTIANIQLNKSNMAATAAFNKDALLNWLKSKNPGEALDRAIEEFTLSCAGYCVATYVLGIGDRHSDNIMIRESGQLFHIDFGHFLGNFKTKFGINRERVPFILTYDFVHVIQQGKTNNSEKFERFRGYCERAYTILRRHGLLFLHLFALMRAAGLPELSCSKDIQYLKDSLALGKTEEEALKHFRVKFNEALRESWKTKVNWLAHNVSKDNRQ
Target sequence in this assay (P27986 whole entry partner): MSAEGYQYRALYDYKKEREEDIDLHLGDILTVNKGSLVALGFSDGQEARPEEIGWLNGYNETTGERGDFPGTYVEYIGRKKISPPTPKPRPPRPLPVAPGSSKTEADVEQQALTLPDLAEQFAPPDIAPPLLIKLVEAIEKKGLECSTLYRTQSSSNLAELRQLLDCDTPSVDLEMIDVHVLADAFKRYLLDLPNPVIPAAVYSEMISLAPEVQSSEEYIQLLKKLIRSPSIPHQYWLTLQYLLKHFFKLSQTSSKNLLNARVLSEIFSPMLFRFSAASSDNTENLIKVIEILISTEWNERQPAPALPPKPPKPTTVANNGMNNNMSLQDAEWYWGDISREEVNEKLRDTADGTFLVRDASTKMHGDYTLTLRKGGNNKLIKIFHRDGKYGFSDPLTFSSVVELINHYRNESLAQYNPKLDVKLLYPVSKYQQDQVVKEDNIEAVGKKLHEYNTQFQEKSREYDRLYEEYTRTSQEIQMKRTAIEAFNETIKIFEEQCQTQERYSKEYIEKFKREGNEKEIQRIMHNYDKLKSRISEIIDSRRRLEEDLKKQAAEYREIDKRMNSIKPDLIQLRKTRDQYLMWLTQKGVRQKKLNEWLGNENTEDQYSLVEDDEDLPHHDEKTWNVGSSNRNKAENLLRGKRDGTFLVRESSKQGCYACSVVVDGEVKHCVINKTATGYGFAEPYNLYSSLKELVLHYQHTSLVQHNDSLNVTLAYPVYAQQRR
For series [7], the target named is T1, PI3Kδ. In words: Immune complex-induced ROS release in human neutrophils. The class given is cell-based. The conditions noted are these: immune complexes.
Target sequence in this assay (O00329 whole entry): as the sequence (O00329 whole entry) above
Target sequence in this assay (P27986 2-724 partner limits assumed): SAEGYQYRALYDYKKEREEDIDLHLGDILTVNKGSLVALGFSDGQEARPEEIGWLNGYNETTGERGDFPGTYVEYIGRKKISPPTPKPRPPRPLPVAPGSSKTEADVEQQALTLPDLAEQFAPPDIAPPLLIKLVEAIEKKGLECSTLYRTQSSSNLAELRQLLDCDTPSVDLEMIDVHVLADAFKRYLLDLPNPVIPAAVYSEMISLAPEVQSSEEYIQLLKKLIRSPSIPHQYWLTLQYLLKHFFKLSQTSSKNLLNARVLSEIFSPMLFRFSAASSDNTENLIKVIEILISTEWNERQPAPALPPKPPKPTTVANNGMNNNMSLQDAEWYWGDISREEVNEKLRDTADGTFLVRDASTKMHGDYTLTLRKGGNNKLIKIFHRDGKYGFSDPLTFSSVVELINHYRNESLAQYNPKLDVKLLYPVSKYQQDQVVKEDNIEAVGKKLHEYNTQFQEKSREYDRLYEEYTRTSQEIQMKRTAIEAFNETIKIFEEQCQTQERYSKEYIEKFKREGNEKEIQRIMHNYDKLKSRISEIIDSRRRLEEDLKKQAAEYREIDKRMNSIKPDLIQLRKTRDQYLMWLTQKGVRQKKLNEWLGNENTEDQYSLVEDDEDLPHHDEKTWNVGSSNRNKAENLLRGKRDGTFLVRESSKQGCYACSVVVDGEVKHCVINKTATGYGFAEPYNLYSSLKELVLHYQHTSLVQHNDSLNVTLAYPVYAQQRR
Series [8] concerns 81 GPCR receptors, 8 ion channels and 5 transporters. In words: General selectivity panel (Cerep). The class given is binding. The conditions noted are these: 10 μM.
For series [9], the system named is primary antibody responses to KLH. The experiment in a line: Primary T cell dependent antibody response (TDAR) to KLH in mice. The format is in vivo. On the procedure: This assay allows a global assessment of the effect of a drug candidate on antigen presentation, helper T lymphocyte function and B lymphocyte dependent antibody production.
In both cases, the administration of the test compound started on the day of sensitization (day +1, KLH 2 mg/mouse, intravenously). […] A possible reason for this discrepancy is that the lymphocyte count of the concurrent vehicle group of the latter study was abnormally lower than usual, which could mask a potential effect of the test compound on this parameter.

Another series has as its target PI3Kβ (Homo sapiens, UniProt P42338). To be noted: HUVEC, S1P stimulus, phosphorylated AKT.
A further series concerns the target PI3K p110γ (Homo sapiens, UniProt P48736). To be noted: recombinant human isoform, pre-incubation 30 min.
The subject of another series is CHO cells. The conditions noted are these: highest tested concentration of 100 μM, 24 h.
Series [10] addresses T1, PI3Kδ. The experiment in a line: M-CSF-induced AKT phosphorylation in THP-1 cells. The class given is cell-based. The conditions noted are these: THP-1, M-CSF stimulus, phosphorylated AKT.
Target sequence in this assay (O00329 whole entry): as the sequence (O00329 whole entry) above
Target sequence in this assay (P27986 whole entry partner): as the sequence (P27986 whole entry partner) above
Series [11] concerns 273 protein and lipid kinases. The experiment in a line: General selectivity kinase panel (Millipore, Invitrogen and ProQinase). The format is biochemical. The conditions noted are these: 10 μM.
For series [12], the target named is T1, PI3Kδ. The experiment in a line: BCR crosslinking-induced CD69 expression in CD19+ B cells, isolated PBMC. The format is cell-based. The conditions noted are these: Anti-IgD, CD69 surface expression.
Target sequence in this assay (O00329 whole entry): as the sequence (O00329 whole entry) above
Target sequence in this assay (P27986 whole entry partner): as the sequence (P27986 whole entry partner) above
Setting [13] is: Week 12 (beginning of treatment).
Where [14] appears, read: dexamethasone 0.1-10 mg/kg and LAS191954 0.1-10 mg/kg ranges tested, dose of value not stated.

PI3K p110γ, sequence (P48736 whole entry, canonical isoform): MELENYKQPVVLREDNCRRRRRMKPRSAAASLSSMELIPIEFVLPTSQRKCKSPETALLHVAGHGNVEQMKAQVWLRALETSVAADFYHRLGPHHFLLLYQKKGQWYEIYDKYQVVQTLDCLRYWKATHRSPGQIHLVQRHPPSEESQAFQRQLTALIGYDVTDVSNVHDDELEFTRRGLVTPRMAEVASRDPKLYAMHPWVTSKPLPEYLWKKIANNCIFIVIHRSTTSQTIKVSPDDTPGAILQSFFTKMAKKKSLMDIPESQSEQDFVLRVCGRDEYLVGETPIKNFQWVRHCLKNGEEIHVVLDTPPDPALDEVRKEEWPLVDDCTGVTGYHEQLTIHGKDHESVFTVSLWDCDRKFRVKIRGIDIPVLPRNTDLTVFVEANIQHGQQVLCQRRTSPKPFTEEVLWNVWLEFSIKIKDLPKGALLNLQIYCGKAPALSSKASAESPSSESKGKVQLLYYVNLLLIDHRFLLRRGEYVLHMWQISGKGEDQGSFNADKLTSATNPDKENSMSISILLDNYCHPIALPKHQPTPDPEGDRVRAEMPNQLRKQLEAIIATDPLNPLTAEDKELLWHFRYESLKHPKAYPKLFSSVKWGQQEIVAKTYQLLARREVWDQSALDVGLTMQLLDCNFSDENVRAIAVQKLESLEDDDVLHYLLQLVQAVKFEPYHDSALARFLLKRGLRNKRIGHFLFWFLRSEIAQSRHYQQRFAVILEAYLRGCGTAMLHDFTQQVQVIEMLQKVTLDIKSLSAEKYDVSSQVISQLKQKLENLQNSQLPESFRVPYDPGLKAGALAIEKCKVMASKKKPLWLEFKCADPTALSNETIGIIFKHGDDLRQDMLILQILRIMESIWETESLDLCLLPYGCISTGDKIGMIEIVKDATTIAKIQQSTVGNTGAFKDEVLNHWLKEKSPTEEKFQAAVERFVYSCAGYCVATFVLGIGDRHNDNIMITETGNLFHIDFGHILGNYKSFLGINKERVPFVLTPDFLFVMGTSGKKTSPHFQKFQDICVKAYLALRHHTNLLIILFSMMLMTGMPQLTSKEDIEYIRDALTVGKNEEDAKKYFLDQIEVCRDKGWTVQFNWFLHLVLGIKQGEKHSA
PI3Kβ, sequence (P42338 whole entry, canonical isoform): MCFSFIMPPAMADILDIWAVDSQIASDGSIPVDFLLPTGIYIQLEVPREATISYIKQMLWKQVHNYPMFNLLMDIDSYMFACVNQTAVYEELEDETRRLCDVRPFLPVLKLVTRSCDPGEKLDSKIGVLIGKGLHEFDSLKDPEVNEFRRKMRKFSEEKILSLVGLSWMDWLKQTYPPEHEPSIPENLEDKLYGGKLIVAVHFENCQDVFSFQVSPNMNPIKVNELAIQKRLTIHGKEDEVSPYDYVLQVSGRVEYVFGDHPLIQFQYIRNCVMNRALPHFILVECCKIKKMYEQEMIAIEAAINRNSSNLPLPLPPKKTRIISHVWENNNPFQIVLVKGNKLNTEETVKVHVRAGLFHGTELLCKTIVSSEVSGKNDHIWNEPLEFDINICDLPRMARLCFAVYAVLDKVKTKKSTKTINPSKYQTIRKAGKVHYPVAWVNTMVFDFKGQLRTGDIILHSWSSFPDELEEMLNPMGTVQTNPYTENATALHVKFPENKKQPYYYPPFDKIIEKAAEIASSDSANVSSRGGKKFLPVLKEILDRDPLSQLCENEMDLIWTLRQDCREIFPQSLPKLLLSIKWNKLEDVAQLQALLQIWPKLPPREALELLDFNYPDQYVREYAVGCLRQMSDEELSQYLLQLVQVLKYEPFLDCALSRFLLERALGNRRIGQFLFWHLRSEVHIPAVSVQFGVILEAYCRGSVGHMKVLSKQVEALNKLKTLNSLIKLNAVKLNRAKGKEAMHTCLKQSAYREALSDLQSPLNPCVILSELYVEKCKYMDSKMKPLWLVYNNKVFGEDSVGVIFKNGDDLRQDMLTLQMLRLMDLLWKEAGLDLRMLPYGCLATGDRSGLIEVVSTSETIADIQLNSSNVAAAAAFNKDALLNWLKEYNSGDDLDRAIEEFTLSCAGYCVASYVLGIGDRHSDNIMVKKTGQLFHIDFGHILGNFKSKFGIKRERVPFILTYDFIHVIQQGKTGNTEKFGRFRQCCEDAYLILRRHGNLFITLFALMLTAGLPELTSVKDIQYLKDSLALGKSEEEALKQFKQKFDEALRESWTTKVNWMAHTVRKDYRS
PI3Kβ, sequence (P27986 whole entry partner, canonical isoform): as the sequence (P27986 whole entry partner) above

Regarding `C[C@]12C=CC(=O)C=C1CC[C@@H]1[C@@H]2[C@@H](O)C[C@@]2(C)[C@H]1CC[C@]2(O)C(=O)CO` [Prednisolone, prednisolone], in series [1], the “Inhibition (%) of Anti Dsg3 total IgG production (Normalized AUCw 12-19) versus Vehicle” value came to 49.5 ± 10% and the “Inhibition (%) of Anti dsDNA total IgG production (Normalized AUCw 12-19) versus Vehicle” value is listed as 46.9 ± 10.9%. Besides, in series [1] (listed as prednisolone), the “Inhibition (%) of Anti Dsg3 total IgG production (Normalized AUCw 12-19) versus Vehicle” value amounted to 49.5% and the “Inhibition (%) of Anti dsDNA total IgG production (Normalized AUCw 12-19) versus Vehicle” value was found to be 47%. Moreover, in [1] (setting [13]), the “Absolute Anti-Dsg3 IgG levels (Mean ± SEM)” value came out at 501 ± 188 U/ml and the “Absolute Anti-dsDNA IgG levels (Mean ± SEM)” value came to 372.796 ± 56.638 U/ml. In series [1] (Week 19 (end of treatment)), the “Absolute Anti-Dsg3 IgG levels (Mean ± SEM)” value was determined as 242 ± 101 U/ml and the “Absolute Anti-dsDNA IgG levels (Mean ± SEM)” value came out at 933.755 ± 343.424 U/ml. In [1] (week 19 versus week 12, FIG. 3), the “change of anti-dsDNA antibody levels at the end of treatment (in words)” value was “doubled” and the “mean decrease in anti-Dsg3 antibody levels below those at the beginning of treatment” value is listed as 20%.

`C[C@@H]1C[C@H]2[C@@H]3CCC4=CC(=O)C=C[C@]4(C)[C@@]3(F)[C@@H](O)C[C@]2(C)[C@@]1(O)C(=O)CO` [Dexamethasone, dexamethasone, reference compound]: the “reduction in neutrophils in BALF” value with neutrophils in BALF is reported as “only = 11%”. For the same compound, in [2], the “reduction in IL2 production versus vehicle-treated con A-induced rats” value was “only = 42%” and the “plasma levels alone versus in combination” value is listed as “same levels”. Moreover, in series [2] (listed as dexamethasone), the “reduction in IL2 production versus vehicle-treated con A-induced rats” value amounted to 42%. In addition, in [3] (setting [14]), the “reduction in eosinophils in BALF” value was 58%, the “reduction in lymphocytes in BALF” value turned out to be 64% and the “reduction in neutrophils in BALF” value is given as “only = 53%,”.

For the compound `C[C@H]1C[C@@H]2[C@H]([C@@H](O)C[C@@]3(C)[C@H]2CC[C@]3(O)C(=O)CO)[C@@]2(C)C=CC(=O)C=C12` [Methylprednisolone, reference compound], the body weight gain result in series [4] was “diminished the body weight gain”.

As usually defined, the IC50 is the concentration that inhibits the measured activity by half. Regarding `C[C@H](Nc1ncnc(N)c1C#N)c1nn2ccc(C#N)c2c(=O)n1-c1ccccc1` [LAS191954, (S)-2-(1-(6-amino-5-cyanopyrimidin-4-ylamino)ethyl)-4-oxo-3-phenyl-3,4-dihydropyrrolo[1,2-f][1,2,4]triazine-5-carbonitrile], the “reduction in neutrophils in BALF” value with neutrophils in BALF is “only = 49%”. In series [5] (0.3 and 3 mg/kg once daily), the lymphocyte counts result is on record as “reduced lymphocyte counts”. Besides, the ID50 in series [5] (secondary IgG anti-KLH, day +11 after second immunization, repeated administration) was less than 0.3 mg/kg; in [2] (single administration, rats), 0.13 mg/kg; in series [9] (primary IgG anti-KLH, day +15, 14-day dosing), 0.17 mg/kg; in [9] (primary IgM anti-KLH, day +5, repeated daily administration), 0.12 mg/kg; in [1] (Anti-Dsg3 and anti-dsDNA autoantibody production, repeated administration), less than 3 mg/kg. The “overall disease activity, AUC of accumulative clinical score versus vehicle” value in [4] (LAS191954 3 mg/kg/day orally) is “significant reduction”. Further, the body weight gain entry in series [4] is reported as “not altered”. The IC50 at PI3Kδ [6] (Anti-IgD) was determined as 0.047 µM; on PI3Kδ [6] (Anti-IgM) it was 0.034 µM; against PI3Kδ [7], 0.011 µM; at PI3Kβ it was 0.295 µM; at PI3K p110γ it was 0.0717 µM; at PI3Kδ [10] it was 0.0078 µM. This compound also displayed a 50% inhibitory concentration (IC50) on PI3Kδ [12] of 0.0046 µM. Further, the “plasma levels alone versus in combination” value in series [2] is reported as “same levels”. For the same compound, the “inhibition at single concentration” value in [8] and in series [11] was “No inhibition” in each case. Further, the lymphocyte count entry in series [9] (primary IgG study, 14-day dosing) is on record as “no apparent effect”. Moreover, in series [9] (primary IgM study, 4 days daily treatment), the WBC counts entry is on record as “lower WBC counts”. The “general health status of the animals” value in series [9] (primary TDAR, 0.03-10 mg/kg daily) is reported as “without apparent effects”. The maximum cell death in the series on CHO cells came to 27%. The “effect on eosinophils in BALF (in words)” value in series [3] (LAS191954 only) is recorded as “only = Modest”. In addition, in [3] (LAS191954 only), the “effect on lymphocytes in BALF (in words)” value is “only = Modest”. In addition, the “effect on neutrophils in BALF (in words)” value in [3] (LAS191954 only) is listed as “increase in”. Besides, the entries for the “Absolute Anti-Dsg3 IgG levels (Mean ± SEM)” value in series [1] (setting [13]) and in series [1] (Week 19 (end of treatment)) were 687 ± 252 U/ml and 450 ± 201 U/ml, respectively. For the same compound, the “Absolute Anti-dsDNA IgG levels (Mean ± SEM)” value is given as 370.152 ± 52.401 U/ml in series [1] (setting [13]) and 333.806 ± 106.959 U/ml in series [1] (Week 19 (end of treatment)). Further, the “mean decrease in anti-Dsg3 antibody levels below those at the beginning of treatment” value in series [1] (week 19 versus week 12, FIG. 3) came out at 40%. Further, the “reduction of anti-dsDNA antibody titers at the end of treatment” value in series [1] (week 19 versus week 12, FIG. 3) worked out at 10%.
